For assay [1], the target named is T1, progesterone receptor (PR) (Homo sapiens, UniProt P06401).
T1 construct: expressed in transfected cells
Briefly: PR luciferase reporter assay in U2OS cells. It counts as cell-based. The settings on record: read-out: ANTAGONIST mode PR IC50. Background: A reporter such as luciferase makes a cellular process visible.

Assay [2] deals with T2, androgen receptor (AR) (Homo sapiens, UniProt P10275).
T2 construct: expressed in transfected cells
T2 sequence (P10275 1-920): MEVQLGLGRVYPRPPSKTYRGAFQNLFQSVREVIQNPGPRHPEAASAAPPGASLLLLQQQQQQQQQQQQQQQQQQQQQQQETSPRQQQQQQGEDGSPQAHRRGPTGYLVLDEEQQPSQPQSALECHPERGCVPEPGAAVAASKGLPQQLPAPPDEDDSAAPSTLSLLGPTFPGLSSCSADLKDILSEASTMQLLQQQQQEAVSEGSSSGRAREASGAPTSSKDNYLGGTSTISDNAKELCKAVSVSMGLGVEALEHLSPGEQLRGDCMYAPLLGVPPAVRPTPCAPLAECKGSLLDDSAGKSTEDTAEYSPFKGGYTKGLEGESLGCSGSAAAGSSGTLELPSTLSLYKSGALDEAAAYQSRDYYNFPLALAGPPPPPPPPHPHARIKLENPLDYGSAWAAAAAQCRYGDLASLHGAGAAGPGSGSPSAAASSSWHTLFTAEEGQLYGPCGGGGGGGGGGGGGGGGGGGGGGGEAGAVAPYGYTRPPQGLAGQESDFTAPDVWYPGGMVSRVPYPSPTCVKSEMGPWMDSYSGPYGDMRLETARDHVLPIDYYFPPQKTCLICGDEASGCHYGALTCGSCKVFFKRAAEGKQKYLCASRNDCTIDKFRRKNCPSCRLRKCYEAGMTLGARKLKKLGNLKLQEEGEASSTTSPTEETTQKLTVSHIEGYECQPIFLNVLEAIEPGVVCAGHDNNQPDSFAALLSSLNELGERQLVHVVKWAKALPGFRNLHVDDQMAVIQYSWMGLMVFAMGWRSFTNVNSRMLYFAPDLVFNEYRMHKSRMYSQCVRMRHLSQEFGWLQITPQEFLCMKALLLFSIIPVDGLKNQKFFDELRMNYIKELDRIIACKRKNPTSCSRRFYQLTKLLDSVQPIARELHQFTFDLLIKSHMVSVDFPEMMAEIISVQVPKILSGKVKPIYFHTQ
Briefly: AR luciferase reporter assay in U2OS cells. It counts as cell-based. The settings on record: for AR antagonism in words: testing range 10 μmol·l^−1 to 1 nmol·l^−1.

Assay [3] addresses T3, human 17βHSD type 5 (Homo sapiens, UniProt P42330).
T3 construct: made in house; host or cells: bacteria (Escherichia coli); supernatant of the lysate
T3 sequence (P42330 1-323): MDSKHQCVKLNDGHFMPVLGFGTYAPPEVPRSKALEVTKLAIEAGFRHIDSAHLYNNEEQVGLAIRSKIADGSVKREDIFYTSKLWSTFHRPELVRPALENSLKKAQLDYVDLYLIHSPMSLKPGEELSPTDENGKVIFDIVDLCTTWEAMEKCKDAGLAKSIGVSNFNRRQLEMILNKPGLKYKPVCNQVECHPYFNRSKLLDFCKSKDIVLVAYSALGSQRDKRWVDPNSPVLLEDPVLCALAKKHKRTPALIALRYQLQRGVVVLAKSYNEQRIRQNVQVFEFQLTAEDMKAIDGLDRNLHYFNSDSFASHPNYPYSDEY
Briefly: Inhibition of recombinant 17βHSD type 5, tritium-labeled substrate conversion. It counts as biochemical. The settings on record: 1 μmol · l^−1 test substance.

The subject of assay [4] is DU145. Briefly: 7 day proliferation assay, DU145. The assay is classed as cell-based. To be noted: 1 μmol·l^−1, 7 days. Here is the method:
In this study, T47D cells were propagated in RPMI 1640 medium supplemented with 10% fetal bovine serum, 2 mmol^·l^−1 glutaMAX (Thermo Fisher Scientific, MA, USA), and penicillin/streptomycin (Thermo Fisher Scientific, Waltham, USA) and incubated in a 5% CO2-humidified atmosphere at 37° C. to the amount needed for the experiment. Two days prior to testing of compounds, growth medium was changed to medium without phenol red, supplemented with 2 mmol^·l^−1 Glutamax and 4% FBS depleted of lipophilic components (including the endogenous estrogenic substances) (Hyclone, GE Healthcare Life Sciences, USA). Two days after the medium replacement, the cells were harvested, counted and resuspended in a medium. Cells were dispensed with liquid dispenser Multidrop (Thermo Fisher Scientific, Waltham, USA), to the cell culture treated, 12-well plates (Corning Inc., NY, USA) at 100 000 cells/well in 1 mL of total media volume. […] After 7 days of cell cultivation with compounds, cells were harvested and counted. […]
Compounds 9 and 12 were tested in the proliferation assay with cell lines derived from the triple negative breast cancer (MDA-MB-231), AR-negative prostate cancer (PC3, DU145) and ovarian cancer (SK-OV-3, CaoV-3). […] At the end of the treatment, cells were harvested and counted. […]

The structures appear in SMILES notation.

The record followed here is patent US10759826B2, “15β-substituted estrone derivatives as selective inhibitors of 17β-hydroxysteroid-dehydrogenases, method of preparation and use thereof” (USTAV ORGANICKE CHEMIE A BIOCHEMIE AV CR, V.V.I., priority 2016, dated 2020).

T1 sequence (P06401 whole entry): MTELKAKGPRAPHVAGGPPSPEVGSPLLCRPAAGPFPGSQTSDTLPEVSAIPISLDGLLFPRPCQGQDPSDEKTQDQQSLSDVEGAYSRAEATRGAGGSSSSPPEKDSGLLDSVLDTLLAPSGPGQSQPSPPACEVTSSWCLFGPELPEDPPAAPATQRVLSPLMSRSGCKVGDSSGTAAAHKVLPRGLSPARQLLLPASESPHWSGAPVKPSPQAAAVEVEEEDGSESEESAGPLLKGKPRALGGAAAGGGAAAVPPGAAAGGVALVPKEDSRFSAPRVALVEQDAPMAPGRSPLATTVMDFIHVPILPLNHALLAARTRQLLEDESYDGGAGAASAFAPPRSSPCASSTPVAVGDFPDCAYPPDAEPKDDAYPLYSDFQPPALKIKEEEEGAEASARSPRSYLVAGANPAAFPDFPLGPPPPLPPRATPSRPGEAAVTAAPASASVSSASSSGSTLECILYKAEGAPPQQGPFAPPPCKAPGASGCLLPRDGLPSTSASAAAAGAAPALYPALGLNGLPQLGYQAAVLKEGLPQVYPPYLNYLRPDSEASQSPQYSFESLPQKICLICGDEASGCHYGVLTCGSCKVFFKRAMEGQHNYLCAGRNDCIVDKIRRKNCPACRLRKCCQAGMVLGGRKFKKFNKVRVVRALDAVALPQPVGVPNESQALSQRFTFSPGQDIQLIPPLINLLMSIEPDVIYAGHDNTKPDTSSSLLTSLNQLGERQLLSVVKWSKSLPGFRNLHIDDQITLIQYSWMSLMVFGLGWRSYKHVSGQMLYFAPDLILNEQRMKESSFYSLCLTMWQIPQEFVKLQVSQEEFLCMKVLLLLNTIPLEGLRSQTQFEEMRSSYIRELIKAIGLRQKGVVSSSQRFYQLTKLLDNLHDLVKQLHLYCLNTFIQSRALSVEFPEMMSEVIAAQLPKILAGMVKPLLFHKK

On to `CCOc1ccc(CC[C@@H]2CC(=O)[C@@]3(C)CC[C@@H]4c5ccc(O)cc5CC[C@H]4[C@H]23)cc1` [Compound 12, 15β-(4-Ethoxyphenethyl)-3-hydroxy-estra-1,3,5(10)-trien-17-one], for which the IC50 (as a rule, the concentration that gives 50% inhibition) in assay [1] was determined as 13.7 µM; in assay [2] (antagonist mode, 1 nmol·l^−1 DHT) it was 89.1 µM. The “AR antagonism in words” value in assay [2] is reported as “antagonists of both types of receptors”. The “% of inhibition of human 17βHSD5” value in assay [3] was determined as 80%. For the same molecule, in assay [4], the “% of survived cells compared to untreated samples, DU145” value was determined as 86%.

For `COc1ccc(CC[C@@H]2CC(=O)[C@@]3(C)CC[C@@H]4c5ccc(O)cc5CC[C@H]4[C@H]23)cc1` [Compound 9, 3-Hydroxy-15β-(4-methoxyphenethyl)-estra-1,3,5 (10)-trien-17-one], in assay [1], the 50% inhibitory concentration (IC50) is 13.6 µM. The “AR antagonism in words” value in assay [2] was “AR antagonist”. In addition, the “% of inhibition of human 17βHSD5” value in assay [3] is listed as 91%. Moreover, the “% of survived cells compared to untreated samples, DU145” value in assay [4] was found to be 98%.
